According to ChEMBL document CHEMBL1201862, “PubChem BioAssay data set” (2004):
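Protocol summary: plate cells (96-well), add compound at 5 concentrations, incubate 48 h, interpolate endpoints linearly. The concentration for 50% growth inhibition is given as GI50.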 Calls of active or inactive are those of the source. No stated cut-off is given here; in the data, active = GI50 up to about 1.1 µM and inactive = higher.

What was measured:
Test in all cases: DTP human tumour cell line panel, 48 h
786-0 = test system: 786-0
A498 = test system: A498
A549 = test system: A549
ACHN = test system: ACHN
CAKI-1 = test system: CAKI-1
CCRF-CEM = test system: CCRF-CEM
COLO 205 = test system: COLO 205
DLD-1 = test system: DLD-1
DMS-273 = test system: DMS-273
EKVX = test system: EKVX
HCC 2998 = test system: HCC 2998
HCT-116 = test system: HCT-116
HCT-15 = test system: HCT-15
HL-60 = test system: HL-60
HOP-18 = test system: HOP-18
HOP-62 = test system: HOP-62
HOP-92 = test system: HOP-92
HT-29 = test system: HT-29
IGROV-1 = test system: IGROV-1
K562 = test system: K562
KM12 = test system: KM12
LOX IMVI = test system: LOX IMVI
M14 = test system: M14
M19-MEL = test system: M19-MEL
MOLT-4 = test system: MOLT-4
NCI-H226 = test system: NCI-H226
NCI-H23 = test system: NCI-H23
NCI-H460 = test system: NCI-H460
OVCAR-3 = test system: OVCAR-3
OVCAR-4 = test system: OVCAR-4
OVCAR-5 = test system: OVCAR-5
OVCAR-8 = test system: OVCAR-8
RXF 393 = test system: RXF 393
RXF 631 = test system: RXF 631
SF-268 = test system: SF-268
SF-295 = test system: SF-295
SF-539 = test system: SF-539
SK-MEL-28 = test system: SK-MEL-28
SK-MEL-2 = test system: SK-MEL-2
SK-MEL-5 = test system: SK-MEL-5
SK-OV-3 = test system: SK-OV-3
SN12C = test system: SN12C
SNB-19 = test system: SNB-19
SNB-75 = test system: SNB-75
SNB-78 = test system: SNB-78
SW-620 = test system: SW-620
TK-10 = test system: TK-10
U-251 = test system: U-251
UACC-257 = test system: UACC-257
UACC-62 = test system: UACC-62
UO-31 = test system: UO-31
DMS-114 = test system: DMS-114
KM-20L2 = test system: KM-20L2
Malme-3M = test system: Malme-3M
NCI-H522 = test system: NCI-H522
RPMI-8226 = test system: RPMI-8226
SR = test system: SR

Q: Which GI50 (786-0) does the source give for `CN(C)CCNC(=O)c1cccc2c1nc(-c1ccccc1)c1ccccc12` here?
A: 3.97 µM (inactive)

Q: And the GI50 (A498)?
A: 0.91 µM (active)

Q: What about the GI50 (A549) of the same compound?
A: 1.07 µM (active)

Q: What about the GI50 (ACHN) of the same compound?
A: 2.88 µM (inactive)

Q: And the GI50 (CAKI-1)?
A: 3.74 µM (inactive)

Q: What about the GI50 (CCRF-CEM) of the same compound?
A: 1.61 µM (inactive)

Q: And the GI50 (COLO 205)?
A: 3.48 µM (inactive)

Q: And the GI50 (DLD-1)?
A: 2.33 µM (inactive)

Q: And the GI50 (DMS-273)?
A: 2.91 µM (inactive)

Q: What about the GI50 (EKVX) of the same compound?
A: 12.9 µM (inactive)

Q: What about the GI50 (HCC 2998) of the same compound?
A: 3.82 µM (inactive)

Q: And the GI50 (HCT-116)?
A: 2.69 µM (inactive)

Q: What about the GI50 (HCT-15) of the same compound?
A: 2.68 µM

Q: And the GI50 (HL-60)?
A: 1.26 µM (inactive)

Q: What about the GI50 (HOP-18) of the same compound?
A: 14.7 µM (inactive)

Q: What about the GI50 (HOP-62) of the same compound?
A: 4.27 µM (inactive)

Q: What about the GI50 (HOP-92) of the same compound?
A: 2.83 µM (inactive)

Q: What about the GI50 (HT-29) of the same compound?
A: 3.35 µM (inactive)

Q: What about the GI50 (IGROV-1) of the same compound?
A: 3.16 µM (inactive)

Q: What about the GI50 (K562) of the same compound?
A: 2.17 µM (inactive)

Q: What about the GI50 (KM12) of the same compound?
A: 6.19 µM (inactive)

Q: What about the GI50 (LOX IMVI) of the same compound?
A: 1.47 µM (inactive)

Q: And the GI50 (M14)?
A: 2.07 µM (inactive)

Q: And the GI50 (M19-MEL)?
A: 5.2 µM (inactive)

Q: What about the GI50 (MOLT-4) of the same compound?
A: 0.323 µM (active)

Q: And the GI50 (NCI-H226)?
A: 2.83 µM (inactive)

Q: And the GI50 (NCI-H23)?
A: 6.65 µM (inactive)

Q: What about the GI50 (NCI-H460) of the same compound?
A: 0.4 µM (active)

Q: What about the GI50 (OVCAR-3) of the same compound?
A: 8.09 µM (inactive)

Q: What about the GI50 (OVCAR-4) of the same compound?
A: 5.45 µM (inactive)

Q: What about the GI50 (OVCAR-5) of the same compound?
A: 4.66 µM (inactive)

Q: And the GI50 (OVCAR-8)?
A: 4.43 µM (inactive)

Q: And the GI50 (RXF 393)?
A: 2.58 µM (inactive)

Q: What about the GI50 (RXF 631) of the same compound?
A: 1.05 µM (active)

Q: What about the GI50 (SF-268) of the same compound?
A: 5.79 µM (inactive)

Q: What about the GI50 (SF-295) of the same compound?
A: 4.67 µM (inactive)

Q: What about the GI50 (SF-539) of the same compound?
A: 2.19 µM (inactive)

Q: And the GI50 (SK-MEL-28)?
A: 9.1 µM (inactive)

Q: What about the GI50 (SK-MEL-2) of the same compound?
A: 11.1 µM (inactive)

Q: What about the GI50 (SK-MEL-5) of the same compound?
A: 2.13 µM (inactive)

Q: What about the GI50 (SK-OV-3) of the same compound?
A: 6.24 µM (inactive)

Q: What about the GI50 (SN12C) of the same compound?
A: 3.01 µM (inactive)

Q: What about the GI50 (SNB-19) of the same compound?
A: 11.3 µM (inactive)

Q: And the GI50 (SNB-75)?
A: 6.76 µM (inactive)

Q: What about the GI50 (SNB-78) of the same compound?
A: 10.4 µM (inactive)

Q: What about the GI50 (SW-620) of the same compound?
A: 2.4 µM (inactive)

Q: What about the GI50 (TK-10) of the same compound?
A: 3.93 µM (inactive)

Q: And the GI50 (U-251)?
A: 5 µM (inactive)

Q: And the GI50 (UACC-257)?
A: 1.73 µM (inactive)

Q: And the GI50 (UACC-62)?
A: 11.9 µM (inactive)

Q: What about the GI50 (UO-31) of the same compound?
A: 1.82 µM (inactive)

Q: For `Cc1ccccc1NC(=O)C(=O)C(c1cnc2ccc([N+](=O)[O-])cc2n1)[N+](=O)[O-]` (configuration not stated), which GI50 (786-0) is on record?
A: > 100 µM (inactive)

Q: And the GI50 (A498)?
A: > 100 µM (inactive)

Q: And the GI50 (A549)?
A: > 100 µM (inactive)

Q: What about the GI50 (ACHN) of the same compound?
A: > 100 µM (inactive)

Q: And the GI50 (CAKI-1)?
A: > 100 µM (inactive)

Q: And the GI50 (CCRF-CEM)?
A: 25.5 µM (inactive)

Q: And the GI50 (COLO 205)?
A: > 100 µM (inactive)

Q: And the GI50 (DLD-1)?
A: > 100 µM (inactive)

Q: And the GI50 (DMS-114)?
A: 43 µM (inactive)

Q: What about the GI50 (DMS-273) of the same compound?
A: 44.5 µM (inactive)

Q: What about the GI50 (EKVX) of the same compound?
A: > 100 µM (inactive)

Q: And the GI50 (HCC 2998)?
A: > 100 µM (inactive)

Q: And the GI50 (HCT-116)?
A: > 100 µM (inactive)

Q: And the GI50 (HCT-15)?
A: > 100 µM

Q: What about the GI50 (HL-60) of the same compound?
A: 24.9 µM (inactive)

Q: And the GI50 (HOP-18)?
A: > 100 µM (inactive)

Q: What about the GI50 (HOP-62) of the same compound?
A: > 100 µM (inactive)

Q: What about the GI50 (HOP-92) of the same compound?
A: > 100 µM (inactive)

Q: And the GI50 (HT-29)?
A: > 100 µM (inactive)

Q: What about the GI50 (IGROV-1) of the same compound?
A: > 100 µM (inactive)

Q: And the GI50 (K562)?
A: 39.1 µM (inactive)

Q: And the GI50 (KM-20L2)?
A: > 100 µM (inactive)

Q: What about the GI50 (KM12) of the same compound?
A: > 100 µM (inactive)

Q: What about the GI50 (LOX IMVI) of the same compound?
A: > 100 µM (inactive)

Q: What about the GI50 (M14) of the same compound?
A: > 100 µM (inactive)

Q: And the GI50 (M19-MEL)?
A: 83 µM (inactive)

Q: What about the GI50 (MOLT-4) of the same compound?
A: 66.1 µM (inactive)

Q: What about the GI50 (Malme-3M) of the same compound?
A: > 100 µM (inactive)

Q: And the GI50 (NCI-H226)?
A: > 100 µM (inactive)

Q: And the GI50 (NCI-H23)?
A: > 100 µM (inactive)

Q: What about the GI50 (NCI-H460) of the same compound?
A: > 100 µM (inactive)

Q: What about the GI50 (NCI-H522) of the same compound?
A: 27.4 µM (inactive)

Q: What about the GI50 (OVCAR-4) of the same compound?
A: > 100 µM (inactive)

Q: What about the GI50 (OVCAR-5) of the same compound?
A: > 100 µM (inactive)

Q: What about the GI50 (OVCAR-8) of the same compound?
A: > 100 µM (inactive)

Q: What about the GI50 (RPMI-8226) of the same compound?
A: 31.7 µM (inactive)

Q: What about the GI50 (RXF 393) of the same compound?
A: > 100 µM (inactive)

Q: What about the GI50 (RXF 631) of the same compound?
A: 70.3 µM (inactive)

Q: And the GI50 (SF-268)?
A: > 100 µM (inactive)

Q: What about the GI50 (SF-295) of the same compound?
A: > 100 µM (inactive)

Q: And the GI50 (SF-539)?
A: > 100 µM (inactive)

Q: What about the GI50 (SK-MEL-28) of the same compound?
A: > 100 µM (inactive)

Q: What about the GI50 (SK-MEL-2) of the same compound?
A: > 100 µM (inactive)

Q: What about the GI50 (SK-MEL-5) of the same compound?
A: 87.3 µM (inactive)

Q: What about the GI50 (SK-OV-3) of the same compound?
A: > 100 µM (inactive)

Q: And the GI50 (SN12C)?
A: > 100 µM (inactive)

Q: What about the GI50 (SNB-19) of the same compound?
A: > 100 µM (inactive)

Q: And the GI50 (SNB-75)?
A: > 100 µM (inactive)

Q: What about the GI50 (SNB-78) of the same compound?
A: > 100 µM (inactive)

Q: What about the GI50 (SR) of the same compound?
A: > 100 µM (inactive)

Q: And the GI50 (SW-620)?
A: > 100 µM (inactive)

Q: And the GI50 (TK-10)?
A: > 100 µM (inactive)

Q: And the GI50 (U-251)?
A: > 100 µM (inactive)

Q: And the GI50 (UACC-257)?
A: > 100 µM (inactive)

Q: What about the GI50 (UACC-62) of the same compound?
A: 51.5 µM (inactive)

Q: And the GI50 (UO-31)?
A: 54 µM (inactive)
